From ChEMBL document CHEMBL1153513, “Sildenafil is a strong activator of mammalian carbonic anhydrase isoforms I-XIV” (Bioorg Med Chem, 2009)

Experiments:
[1] = molecular target: Carbonic anhydrase 6 (Homo sapiens) (UniProt P23280); assay: Activation of human recombinant carbonic anhydrase 6 by stopped flow CO2 hydration method
[2] = molecular target: Carbonic anhydrase 3 (Homo sapiens) (UniProt P07451); assay: Activation of human recombinant carbonic anhydrase 3 by stopped flow CO2 hydration method
Chain of Carbonic anhydrase 3 (Homo sapiens) (P07451 whole entry): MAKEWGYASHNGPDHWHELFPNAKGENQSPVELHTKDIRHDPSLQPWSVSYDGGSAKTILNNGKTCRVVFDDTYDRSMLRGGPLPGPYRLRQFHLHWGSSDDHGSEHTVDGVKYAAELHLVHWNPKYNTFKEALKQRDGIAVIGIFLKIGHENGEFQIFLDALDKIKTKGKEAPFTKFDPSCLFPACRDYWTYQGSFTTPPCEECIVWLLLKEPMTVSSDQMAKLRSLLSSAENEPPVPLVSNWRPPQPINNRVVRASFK

[3] = Half life in po dosed human plasma; assay type: ADME, organism-based
[4] = molecular target: Carbonic anhydrase 1 (Homo sapiens) (UniProt P00915); assay: Activation of human recombinant carbonic anhydrase 1 by stopped flow CO2 hydration method
Chain of Carbonic anhydrase 1 (Homo sapiens) (P00915 2-261 limits assumed): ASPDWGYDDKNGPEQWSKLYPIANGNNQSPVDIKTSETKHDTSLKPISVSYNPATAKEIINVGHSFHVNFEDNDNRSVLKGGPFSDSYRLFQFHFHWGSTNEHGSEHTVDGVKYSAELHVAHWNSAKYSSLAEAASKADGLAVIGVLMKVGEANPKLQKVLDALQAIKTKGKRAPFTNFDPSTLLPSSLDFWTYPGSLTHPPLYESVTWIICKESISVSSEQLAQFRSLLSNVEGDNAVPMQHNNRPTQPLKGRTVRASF

[5] = molecular target: Carbonic anhydrase 12 (Homo sapiens) (UniProt O43570); assay: Activation of human recombinant carbonic anhydrase 12 catalytic domain by stopped flow CO2 hydration method
Chain of Carbonic anhydrase 12 (Homo sapiens) (O43570 whole entry, the tested form may be a part): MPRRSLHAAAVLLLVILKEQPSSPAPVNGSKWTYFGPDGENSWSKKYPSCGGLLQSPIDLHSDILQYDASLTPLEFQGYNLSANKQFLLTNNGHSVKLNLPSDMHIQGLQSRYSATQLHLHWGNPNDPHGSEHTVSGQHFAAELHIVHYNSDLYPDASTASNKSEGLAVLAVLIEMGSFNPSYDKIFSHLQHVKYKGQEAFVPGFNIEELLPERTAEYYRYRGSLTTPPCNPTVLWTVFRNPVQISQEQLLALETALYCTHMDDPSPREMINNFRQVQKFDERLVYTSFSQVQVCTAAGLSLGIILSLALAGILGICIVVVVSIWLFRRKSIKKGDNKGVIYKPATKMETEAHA

[6] = molecular target: Carbonic anhydrase 7 (Homo sapiens) (UniProt P43166); assay: Activation of human recombinant carbonic anhydrase 7 by stopped flow CO2 hydration method
Chain of Carbonic anhydrase 7 (Homo sapiens) (P43166 whole entry): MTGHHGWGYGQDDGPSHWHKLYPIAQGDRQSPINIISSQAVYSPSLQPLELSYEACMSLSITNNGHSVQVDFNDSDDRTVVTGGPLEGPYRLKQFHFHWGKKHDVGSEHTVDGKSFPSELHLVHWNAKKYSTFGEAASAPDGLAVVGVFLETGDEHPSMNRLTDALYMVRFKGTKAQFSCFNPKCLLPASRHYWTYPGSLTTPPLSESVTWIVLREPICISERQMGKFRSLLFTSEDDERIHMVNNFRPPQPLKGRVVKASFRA

[7] = molecular target: Carbonic anhydrase 4 (Homo sapiens) (UniProt P22748); assay: Activation of human recombinant carbonic anhydrase 4 by stopped flow CO2 hydration method
Chain of Carbonic anhydrase 4 (Homo sapiens) (P22748 whole entry): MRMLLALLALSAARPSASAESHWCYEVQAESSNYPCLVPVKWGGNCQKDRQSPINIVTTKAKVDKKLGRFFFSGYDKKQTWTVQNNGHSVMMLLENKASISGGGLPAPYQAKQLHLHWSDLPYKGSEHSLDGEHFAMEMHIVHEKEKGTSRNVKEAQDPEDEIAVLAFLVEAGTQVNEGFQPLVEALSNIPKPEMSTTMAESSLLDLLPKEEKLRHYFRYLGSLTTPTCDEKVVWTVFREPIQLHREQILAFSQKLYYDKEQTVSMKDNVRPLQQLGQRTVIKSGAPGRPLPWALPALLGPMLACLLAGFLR

[8] = molecular target: Carbonic anhydrase 13 (Mus musculus) (UniProt Q9D6N1); assay: Activation of mouse recombinant carbonic anhydrase 13 by stopped flow CO2 hydration method
Chain of Carbonic anhydrase 13 (Mus musculus) (Q9D6N1 whole entry, looked up): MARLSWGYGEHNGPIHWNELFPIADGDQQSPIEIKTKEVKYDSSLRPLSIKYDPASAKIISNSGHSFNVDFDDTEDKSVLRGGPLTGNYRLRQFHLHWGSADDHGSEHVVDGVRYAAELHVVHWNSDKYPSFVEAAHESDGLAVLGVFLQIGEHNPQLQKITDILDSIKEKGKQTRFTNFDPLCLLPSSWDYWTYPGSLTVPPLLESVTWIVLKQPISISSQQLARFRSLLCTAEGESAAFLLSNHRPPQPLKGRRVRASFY

[9] = molecular target: Carbonic anhydrase 5A, mitochondrial (Homo sapiens) (UniProt P35218); assay: Activation of human recombinant carbonic anhydrase 5A by stopped flow CO2 hydration method
Chain of Carbonic anhydrase 5A, mitochondrial (Homo sapiens) (P35218 whole entry): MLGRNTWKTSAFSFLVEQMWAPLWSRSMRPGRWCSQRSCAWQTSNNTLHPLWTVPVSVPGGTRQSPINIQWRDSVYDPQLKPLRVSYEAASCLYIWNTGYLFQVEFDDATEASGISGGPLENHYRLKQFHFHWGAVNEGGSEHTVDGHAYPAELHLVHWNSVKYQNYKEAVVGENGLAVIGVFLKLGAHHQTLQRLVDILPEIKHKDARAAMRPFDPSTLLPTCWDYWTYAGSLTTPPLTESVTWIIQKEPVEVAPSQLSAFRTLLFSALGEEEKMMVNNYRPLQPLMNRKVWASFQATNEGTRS

Rattus norvegicus [10] = assay: Activation of carbonic anhydrase in Sprague-Dawley rat red blood cells at 1 mg/kg, po after 5 hrs by colorimetry relative to control; assay type: functional
[11] = molecular target: Carbonic anhydrase 5B, mitochondrial (Homo sapiens) (UniProt Q9Y2D0); assay: Activation of human recombinant carbonic anhydrase 5B by stopped flow CO2 hydration method
Chain of Carbonic anhydrase 5B, mitochondrial (Homo sapiens) (Q9Y2D0 whole entry): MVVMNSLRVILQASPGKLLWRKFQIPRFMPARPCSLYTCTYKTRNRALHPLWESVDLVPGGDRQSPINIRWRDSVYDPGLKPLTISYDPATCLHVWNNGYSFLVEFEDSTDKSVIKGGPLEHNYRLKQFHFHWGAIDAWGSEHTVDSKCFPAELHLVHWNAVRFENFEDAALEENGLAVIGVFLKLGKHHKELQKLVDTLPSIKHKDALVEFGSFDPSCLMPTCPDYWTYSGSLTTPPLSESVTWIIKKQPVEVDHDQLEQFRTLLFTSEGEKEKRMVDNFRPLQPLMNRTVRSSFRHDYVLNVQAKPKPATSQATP

Rattus norvegicus [12] = assay: Activation of carbonic anhydrase in Sprague-Dawley rat red blood cells at 1 mg/kg, po after 1 hr by colorimetry relative to control; assay type: functional
Rattus norvegicus [13] = assay: Activation of carbonic anhydrase in Sprague-Dawley rat red blood cells at 1 mg/kg, po after 3 hrs by colorimetry relative to control; assay type: functional
[14] = molecular target: Carbonic anhydrase 2 (Homo sapiens) (UniProt P00918); assay: Activation of human recombinant carbonic anhydrase 2 by stopped flow CO2 hydration method
[15] = molecular target: Carbonic anhydrase 9 (Homo sapiens) (UniProt Q16790); assay: Activation of human recombinant carbonic anhydrase 9 catalytic domain by stopped flow CO2 hydration method
[16] = molecular target: Carbonic anhydrase 14 (Homo sapiens) (UniProt Q9ULX7); assay: Activation of human recombinant carbonic anhydrase 14 by stopped flow CO2 hydration method
Chain of Carbonic anhydrase 14 (Homo sapiens) (Q9ULX7 whole entry): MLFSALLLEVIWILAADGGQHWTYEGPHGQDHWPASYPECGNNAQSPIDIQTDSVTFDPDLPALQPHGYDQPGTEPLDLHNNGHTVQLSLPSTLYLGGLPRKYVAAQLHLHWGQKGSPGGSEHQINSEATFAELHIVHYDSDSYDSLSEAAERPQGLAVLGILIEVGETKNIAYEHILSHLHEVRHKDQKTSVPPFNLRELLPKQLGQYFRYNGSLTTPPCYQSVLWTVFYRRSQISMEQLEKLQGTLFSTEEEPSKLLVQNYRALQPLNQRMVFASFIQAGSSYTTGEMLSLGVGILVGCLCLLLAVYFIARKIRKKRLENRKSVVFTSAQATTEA

Chain of Carbonic anhydrase 6 (Homo sapiens) (P23280 whole entry): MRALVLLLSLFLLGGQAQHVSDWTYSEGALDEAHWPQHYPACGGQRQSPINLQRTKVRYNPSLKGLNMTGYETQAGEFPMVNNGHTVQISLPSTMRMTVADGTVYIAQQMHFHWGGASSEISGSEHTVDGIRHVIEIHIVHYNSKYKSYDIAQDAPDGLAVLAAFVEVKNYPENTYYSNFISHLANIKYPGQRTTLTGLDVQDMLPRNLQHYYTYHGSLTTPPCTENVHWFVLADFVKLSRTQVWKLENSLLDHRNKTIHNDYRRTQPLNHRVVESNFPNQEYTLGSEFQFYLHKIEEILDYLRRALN

Which KA [1] does the source give for `NCCN1CCNCC1` here?
Its KA is 9.54 µM.

For `NCCc1c[nH]cn1`, which KA [1] is on record?
Its KA is 6.5 µM.

Which KA [2] does the source give for `CCCc1nn(C)c2c(=O)[nH]c(-c3cc(S(=O)(=O)N4CCN(C)CC4)ccc3OCC)nc12.O=C(O)CC(O)(CC(=O)O)C(=O)O` [SILDENAFIL CITRATE] here?
Its KA is 13.4 µM.

What about the half-life [3] of the same compound?
Its half-life is 4 h.

What about the KA [4] of the same compound?
Its KA is 1.08 µM.

What about the KA [5] of the same compound?
The KA was 73 µM.

And the KA [6]?
The KA was 72.9 µM.

What about the KA [7] of the same compound?
Its KA is 15.2 µM.

What about the KA [8] of the same compound?
The KA was 27.5 µM.

And the KA [9]?
Its KA is 16.8 µM.

And the Activity (Rattus norvegicus [10])?
The Activity was 79.19%.

And the KA [11]?
Its KA is 6.54 µM.

And the Activity (Rattus norvegicus [12])?
The Activity was 84.47%.

What about the Activity (Rattus norvegicus [13]) of the same compound?
Its Activity is 59.6%.

And the KA [14]?
Its KA is 31.3 µM.

And the KA [15]?
Its KA is 34 µM.

What about the KA [1] of the same compound?
Its KA is 2.37 µM.

What about the KA [16] of the same compound?
The KA was 32.4 µM.
